# From patent publication US20020107209A1, “Triterpene saponins from soybeans for treating kidney disease” (priority 2000, published 2002)
# Key:
# [1] = tested on: pcy mouse model of PKD; assay: 90-day feeding trial in pcy mice: casein-based diet supplemented with Novasoy 400 or soyasaponin Bb concentrate; type: in vivo; details: for effect on attenuation of kidney size and cyst development: pcy mouse model of PKD, summary in words
# Description: Experiments were conducted with a purified soyasaponin Bb concentrate for a feeding trial in the pcy mice.
# The feeding trial, which followed the acquisition of this soyasaponin Bb concentrate, explored the possibility that this concentrate was an important contributor to the attenuation of disease progression in the pcy mouse. The protocol used in this trial involved the random assignment of young, male pcy mice to one of three dietary treatments and feeding these diets for 90 days, the usual time frame in these studies. The diets used in this feeding trial were:1) an unsupplemented casein-based diet, known to increase the severity of the renal cystic disease; 2) this casein-based diet supplemented with Novasoy 400®, a new, isoflavone-enhanced product containing low levels of the soyasaponins (ADM, Decatur, Ill.) or 3) the casein-based diet supplemented with the purified soyasaponin Bb concentrate prepared by Drs. Collins and Sarr.
# After three months the mice were humanely euthanized and the kidney and liver tissues removed and stored at −80 degrees Celsius until measurements of tissue water content and cell volume could be taken. Organ water content was determined in the kidney and liver by measuring the difference between the wet weight of the tissue and its subsequent weight after freeze-drying. Plasma, obtained by centrifugation of the cardiac blood, was used for standard measurements of renal function, including total protein, urea, and creatinine concentrations. Soy protein fractions enriched in the soyasaponins are reportedly hypocholesterolemic when fed to hamsters (Gatchalian-Yee M. et al. Nutrition. 13:633-639,1997) and plasma cholesterol levels were also measured in the present experiment whenever the sample volume was adequate. Differences between treatment effects were assessed by a one-way ANOVA and the significance of these differences between means obtained by the Tukey's Honestly Significant Different Test.
# [2] = tested on: rodent models of polycystic kidney disease (PKD); assay: Casein-based diet supplemented with crude saponin-enriched alcohol extract (SEAE), ginseng, genistein or L-arginine; earlier experiment; type: in vivo, mice; details: supplementation of the casein-based diet
# Source text: These beneficial effects appeared unique to the saponins derived from soybeans as supplementation of the casein-based diet with (1) ginseng (also a saponin), (2) genistein, (an isoflavone naturally present in SPI) or (3) addition of the amino acid L-arginine to the casein to mimic the amino acid composition to that of the SPI had no effect on disease progression.
# The major component of the SEAE was identified as soyasaponin Bb with smaller amounts of two or three unidentified saponins and trace amounts of genistein and daidzen, two naturally occurring isoflavones in soy protein. The inventors determined that the Group B soybean-derived saponins (soyasaponins), especially soyasaponin Bb, was an important contributor to the attenuation of cyst growth.
# [3] = pcy mice, 90 days, plasma from cardiac blood, mean ± SEM
# [4] = pcy mice, 90 days, versus casein
# [5] = pcy mice, 90 days, versus unsupplemented casein diet
# [6] = pcy mice, diet fed 90 days, mean ± SEM
# [7] = pcy mice, diet fed 90 days, mean ± SEM, 8 animals/group
"daily food intake ([1]; pcy mice, 90-day feeding trial)","relative liver weight [1, 4]","Final body wt [1, 6]","Liver water content [1, 6]","Liver wt [1, 6]","Liver wt (g/100 g body wt) [1, 6]",Structure (SMILES),"Plasma cholesterol [1, 3]","Plasma creatinine [1, 3]","Plasma total protein [1, 3]","Plasma urea [1, 3]","absolute and relative kidney weight and kidney water content [1, 4]","plasma cholesterol levels [1, 5]","plasma creatinine levels [1, 5]","Kidney water content (g/left kidney) ([1]; pcy mice, 90 days, wet weight minus freeze-dried weight, mean ± SEM)","Total kidney wt [1, 7]","Total kidney wt (g/100 g body wt) [1, 7]",effect on attenuation of kidney size and cyst development [1],effect on attenuation of kidney size and cyst development ([1]; listed as soyasaponin Bb concentrate),effect on disease progression [2]
3.3 ± 0.0 g/day,not observed,25.1 ± 0.1 g,0.82 ± 0.0 g,1.2 ± 0.2 g,4.6 ± 0.1 g/100 g body wt,"C[C@@H]1O[C@@H](O[C@H]2[C@H](O[C@H]3[C@H](O[C@H]4CC[C@@]5(C)[C@@H](CC[C@]6(C)[C@@H]5CC=C5[C@@H]7CC(C)(C)C[C@@H](O)[C@]7(C)CC[C@]56C)[C@@]4(C)CO)O[C@H](C(=O)O)[C@@H](O)[C@@H]3O)O[C@H](CO)[C@H](O)[C@@H]2O)[C@H](O)[C@H](O)[C@H]1O [soyasaponin Bb, 3-O-(α-L-rhamnosyl-1→2-β-D-galactosyl-1→2-β-D-glucuronosyl)-soyasapogenol B]",4.8 ± 0.3 mM/L,17.5 ± 1.9 µM,54.3 ± 1.1 g/L,19.5 ± 3.0 mM/L,marked reduction,lesser hypocholesterolemic effect,markedly reduced,0.61 ± 0.1 g/left kidney,1.3 ± 0.1 g,5.2 ± 0.3 g/100 g body wt,important beneficial effect,marked beneficial effect,
,,,,,,N=C(N)NCCC[C@H](N)C(=O)O [L-arginine],,,,,,,,,,,,,no effect
,,,,,,O=c1c(-c2ccc(O)cc2)coc2cc(O)cc(O)c12 [genistein],,,,,,,,,,,,,no effect
